According to BindingDB's records for doi:10.1016/j.bmcl.2013.04.070 (2013):
pIC50: −log10 of the molar value.

Target: Presenilin-1 (Homo sapiens, UniProt P49768)
Test: Modulation of human gamma-secretase presenilin-1 subunit expressed in CHO cells coexpressing human APP assessed as decrease in amyloid beta 42 generation after 24 hrs by ELISA

A pIC50 of 4.50 was found for CCCCCCCCOC(=O)C1(C)CCc2c(C)c(OCC(=O)O)c(C)c(C)c2O1 (stereo unspecified) in this work.
